Measured values as given in patent US20100075965A1, “PI3 KINASE INHIBITORS AND METHODS OF THEIR USE” (Novartis AG, priority 2006, published 2010).
Where two headings read alike, the source gives them in different places.

How the values were obtained:
A2780 cells = assay: Viability assay in A2780 (Cell Titer Glo); type: cell-based, human; conditions: Homo sapiens
Summary of the method: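 EC50 values come from Cell Titer Glo luminescence after 72 hrs of compound exposure at 37° C, run in duplicate. A2780 cells were plated at 1,000 per well in DMEM with 10% FBS and dosed with 3-fold serial dilutions.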

[1] = system: pSer473-Akt in A2780 cells; assay: pSer473 Akt assay to monitor PI3K pathway in A2780 cells (MSD); type: cell-based; conditions: Homo sapiens
Protocol: In this method, an assay for measuring the PI3K-mediated pSer^473-Akt status after treatment with representative inhibitor compounds of the preferred embodiments is described.
A2780 cells were cultured in DMEM supplemented with 10% FBS, L-glutamine, sodium pyruvate, and antibiotics. Cells were plated in the same medium at a density of 15,000 cells per well into 96 well tissue culture plates, with outside wells vacant, and allowed to adhere overnight.
Test compounds supplied in DMSO were diluted further into DMSO at 500 times the desired final concentrations before dilution into culture media to 2 times the final concentrations. Equal volumes of 2× compounds in media were added to the cells in 96 well plates and incubated at 37° C. for one hour. The media and compounds were then removed, the plates chilled and cells lysed in a lysis buffer (150 mM NaCl, 20 mM Tris pH 7.5, 1 mM EDTA, 1 mM EGTA, 1% Triton X-100) supplemented with phosphatase and protease inhibitors. After thorough mixing, lysates were transferred to both pSer473Akt and total Akt assay plates from Meso Scale Discovery (MSD), and incubated overnight with shaking at 4° C. The plates were washed with 1×MSD wash buffer and the captured analytes detected with secondary antibodies. After incubation with the secondary antibody at room temperature for 1-2 hours, the plates were washed again and 1.5× concentration of Read Buffer T (MSD) was added to the wells.
The assays were read on a SECTOR Imager 6000 instrument (Meso Scale Discovery). Ratios of the signal from pSer473Akt and total Akt assays were used to correct for any variability and the percent inhibition of pSer473Akt from the total signal seen in cells treated with compound versus DMSO alone was calculated and used to determine EC50 values for each compound as shown in Tables 1 and 2 in the column labeled “A2780 pAKT473 EC50”.

PI3 K Alpha = PI3 K Alpha (Homo sapiens, UniProt P42336); assay: PI3 kinase phosphorylation assays (homogenous solution phase, one step solid phase, ATP depletion/KinaseGlo); type: biochemical
[2] = A2780 cells, 72 hrs, read-out: A2780 Cell prolif. EC50
[3] = 1 h, A2780 cells, one hour incubation, read-out: A2780 pAKT473 EC50
[4] = ATP depletion assay, read-out: PI3 K Alpha IC50
[5] = A2780 cells, read-out: A2780 Cell prolif. EC50
[6] = A2780 cells, read-out: A2780 pAKT 473 EC50

Chain of PI3 K Alpha (P42336 whole entry): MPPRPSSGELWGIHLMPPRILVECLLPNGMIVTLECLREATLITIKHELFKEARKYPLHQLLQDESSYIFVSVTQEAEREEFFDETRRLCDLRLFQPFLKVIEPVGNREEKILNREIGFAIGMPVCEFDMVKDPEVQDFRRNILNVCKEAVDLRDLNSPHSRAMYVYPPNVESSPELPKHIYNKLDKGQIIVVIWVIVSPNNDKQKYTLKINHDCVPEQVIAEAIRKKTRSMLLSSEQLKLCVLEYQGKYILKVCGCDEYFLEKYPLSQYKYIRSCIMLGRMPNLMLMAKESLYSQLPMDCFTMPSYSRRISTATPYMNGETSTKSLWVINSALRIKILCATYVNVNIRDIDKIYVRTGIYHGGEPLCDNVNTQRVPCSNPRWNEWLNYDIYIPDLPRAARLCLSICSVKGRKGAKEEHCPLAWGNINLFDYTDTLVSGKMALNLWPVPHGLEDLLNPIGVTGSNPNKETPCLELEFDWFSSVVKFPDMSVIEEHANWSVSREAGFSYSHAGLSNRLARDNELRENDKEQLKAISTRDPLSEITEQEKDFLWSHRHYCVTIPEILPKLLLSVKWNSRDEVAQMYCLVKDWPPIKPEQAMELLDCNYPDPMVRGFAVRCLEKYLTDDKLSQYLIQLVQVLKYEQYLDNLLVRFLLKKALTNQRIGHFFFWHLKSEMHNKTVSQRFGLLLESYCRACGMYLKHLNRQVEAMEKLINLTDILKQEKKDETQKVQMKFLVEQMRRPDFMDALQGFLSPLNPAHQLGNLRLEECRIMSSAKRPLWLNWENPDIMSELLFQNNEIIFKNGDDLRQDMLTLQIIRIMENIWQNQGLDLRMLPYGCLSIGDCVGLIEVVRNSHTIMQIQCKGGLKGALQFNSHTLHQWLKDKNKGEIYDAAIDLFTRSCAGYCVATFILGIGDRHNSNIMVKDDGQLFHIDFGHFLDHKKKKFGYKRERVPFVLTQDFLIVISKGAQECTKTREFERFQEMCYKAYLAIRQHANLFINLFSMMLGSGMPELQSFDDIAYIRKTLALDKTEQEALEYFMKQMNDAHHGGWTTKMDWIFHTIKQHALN
Chain of PI3 K Alpha (P27986 whole entry partner): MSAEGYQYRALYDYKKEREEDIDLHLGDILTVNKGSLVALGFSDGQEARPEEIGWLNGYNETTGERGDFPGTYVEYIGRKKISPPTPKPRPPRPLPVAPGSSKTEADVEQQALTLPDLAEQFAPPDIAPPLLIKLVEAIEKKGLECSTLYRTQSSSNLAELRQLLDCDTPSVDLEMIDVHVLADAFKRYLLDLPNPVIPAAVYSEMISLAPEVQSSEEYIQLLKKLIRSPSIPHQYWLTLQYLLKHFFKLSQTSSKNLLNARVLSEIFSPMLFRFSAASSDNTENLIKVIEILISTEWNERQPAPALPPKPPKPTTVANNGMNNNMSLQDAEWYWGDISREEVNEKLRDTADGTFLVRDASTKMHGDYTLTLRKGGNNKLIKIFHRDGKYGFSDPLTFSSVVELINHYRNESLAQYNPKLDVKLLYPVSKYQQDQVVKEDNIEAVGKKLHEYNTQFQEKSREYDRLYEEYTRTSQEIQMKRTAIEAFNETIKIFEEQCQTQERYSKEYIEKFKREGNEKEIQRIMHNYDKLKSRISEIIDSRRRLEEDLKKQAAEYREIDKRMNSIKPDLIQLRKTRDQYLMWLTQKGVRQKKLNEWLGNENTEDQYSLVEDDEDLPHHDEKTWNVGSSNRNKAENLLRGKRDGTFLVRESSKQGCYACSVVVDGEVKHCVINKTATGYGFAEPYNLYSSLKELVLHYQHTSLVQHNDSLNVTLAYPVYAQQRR

EC50 (A2780 cells; [2]) [µM] | EC50 [1, 3] [µM] | IC50 (PI3 K Alpha; [4]) [µM] | EC50 (A2780 cells; [5]) [µM] | EC50 [1, 6] [µM] | IC50 (PI3 K Alpha; read-out: PI3K Alpha IC50) [µM] | SMILES | EC50 (A2780 cells; A2780, read-out: A2780 Cell prolif. EC50) [µM] | EC50 ([1]; A2780, read-out: A2780 pAKT 473 EC50) [µM]
– | – | – | < 10 | < 1 | < 1 | Nc1ncc(-c2ccc3nc(NC(=O)CCCN4CCCCC4)cn3c2)cc1C(F)(F)F [Example 25, N-[6-(6-Amino-5-trifluoromethyl-pyridin-3-yl)-imidazo[1,2-a]pyridin-2-yl]-4-piperidin-1-yl-butyramide] | – | –
– | – | – | < 10 | < 1 | < 1 | Nc1ncc(-c2ccc3nc(NC(=O)CCCN4CCOCC4)cn3c2)cc1C(F)(F)F [Example 26, N-[6-(6-Amino-5-trifluoromethyl-pyridin-3-yl)-imidazo[1,2-a]pyridin-2-yl]-4-morpholin-4-yl-butyramide] | – | –
– | – | – | < 10 | < 1 | < 1 | Nc1ncc(-c2ccc3nc(NC(=O)CCCO)cn3c2)cc1C(F)(F)F [Example 27, N-[6-(6-Amino-5-trifluoromethyl-pyridin-3-yl)-imidazo[1,2-a]pyridin-2-yl]-4-hydroxy-butyramide] | – | –
– | – | – | < 25 | < 1 | < 1 | CC(=O)Nc1cn2cc(-c3cnc(N)c(F)c3)ccc2n1 [Example 28, N-[6-(6-Amino-5-fluoro-pyridin-3-yl)-imidazo[1,2-a]pyridin-2-yl]-acetamide] | – | –
– | – | – | < 25 | < 10 | < 1 | CC(=O)Nc1cn2cc(-c3cnc(N)cc3F)ccc2n1 [Example 29, N-[6-(6-Amino-4-fluoro-pyridin-3-yl)-imidazo[1,2-a]pyridin-2-yl]-acetamide] | – | –
– | – | – | < 10 | < 1 | < 1 | CCN(CC)CC#Cc1c(NC(C)=O)nc2ccc(-c3cnc(N)c(C(F)(F)F)c3)cn12 [Example 30, N-[6-(6-Amino-5-trifluoromethyl-pyridin-3-yl)-3-(3-diethylamino-prop-1-ynyl)-imidazo[1,2-a]pyridin-2-yl]-acetamide] | – | –
– | – | – | < 1 | < 1 | < 1 | CC(=O)Nc1nc2ccc(-c3cnc(N)c(C(F)(F)F)c3)cn2c1C#N [Example 32, N-[6-(6-Amino-5-trifluoromethyl-pyridin-3-yl)-3-cyano-imidazo[1,2-a]pyridin-2-yl]-acetamide] | – | –
– | – | – | < 10 | < 25 | > 25 | COc1cc(-c2ccc3nc(NC(C)=O)cn3c2)c(C)nc1N [Example 33, N-(6-(6-amino-5-methoxy-2-methylpyridin-3-yl)imidazo[1,2-a]pyridin-2-yl)acetamide] | – | –
– | – | – | < 10 | < 10 | < 10 | CC(=O)Nc1cn2cc(-c3cnc(N)c(-c4ccc(N5CCOCC5)cc4)c3)ccc2n1 [Example 39, N-(6-(6-amino-5-(4-morpholino-phenyl)pyridin-3-yl)imidazo[1,2-a]pyridin-2-yl)acetamide] | – | –
– | – | – | < 10 | < 1 | < 1 | COc1ccc(CC(=O)Nc2cn3cc(-c4cnc(N)c(C(F)(F)F)c4)ccc3n2)cc1OC [Example 51] | – | –
– | – | – | < 1 | < 1 | < 1 | CC(=O)Nc1cn2nc(-c3cnc(N)c(-c4ccccc4C(F)(F)F)c3)ccc2n1 [Example 53, N-(6-(6-amino-5-(2-(trifluoromethyl)phenyl)pyridin-3-yl)imidazo[1,2-b]pyridazin-2-yl)acetamide] | – | –
– | – | – | < 1 | < 10 | < 1 | CC(=O)Nc1cn2cc(-c3cnc(N)c(/C=N/Nc4ccccc4)c3)ccc2n1 [Example 58, (E)-N-(6-(6-amino-5-((2-phenylhydrazono)methyl)pyridin-3-yl)imidazo[1,2-a]pyridin-2-yl)acetamide] | – | –
– | – | – | < 1 | < 1 | < 1 | Nc1ncc(-c2ccc3nc(NC(=O)CCC4CCCCN4)cn3n2)cc1C(F)(F)F (stereo not drawn) [Example 59, N-(6-(6-amino-5-(trifluoromethyl)pyridin-3-yl)imidazo[1,2-b]pyridazin-2-yl)-3-(piperidin-2-yl)propanamide] | – | –
– | – | – | < 1 | < 1 | < 1 | CNCC(=O)Nc1cn2nc(-c3cnc(N)c(C(F)(F)F)c3)ccc2n1 [Example 60, N-(6-(6-amino-5-(trifluoromethyl)pyridin-3-yl)imidazo[1,2-b]pyridazin-2-yl)-2-(methylamino) acetamide] | – | –

The next lines start with the compound.

SMILES | EC50 (A2780 cells; [2]) [µM] | EC50 [1, 3] [µM] | IC50 (PI3 K Alpha; [4]) [µM] | EC50 (A2780 cells; [5]) [µM] | EC50 [1, 6] [µM] | IC50 (PI3 K Alpha; read-out: PI3K Alpha IC50) [µM] | EC50 (A2780 cells; A2780, read-out: A2780 Cell prolif. EC50) [µM] | EC50 ([1]; A2780, read-out: A2780 pAKT 473 EC50) [µM]
COCCOc1nc(-c2ccc3nc(NC(C)=O)sc3c2)cnc1N [Example 2-32, N-(6-(5-amino-6-(2-methoxyethoxy)pyrazin-2-yl)benzo[d]thiazol-2-yl)acetamide] | < 10 | < 1 | < 1 | – | – | – | – | –
NC(=O)[C@@H]1CCCN1C(=O)Nc1nc2ccc(-c3cnc(N)c(C(F)(F)F)c3)cc2s1 [Example 2-33, (S)-N1-(6-(6-amino-5-(trifluoromethyl)pyridin-3-yl)benzo[d]thiazol-2-yl)pyrrolidine-1,2-dicarboxamide] | < 10 | < 1 | < 1 | – | – | – | – | –
CC(=O)Nc1nc2ccc(-c3cnc(N)c(OCC(F)(F)F)n3)cc2s1 [Example 2-37, N-(6-(5-amino-6-(2,2,2-trifluoroethoxy)pyrazin-2-yl)benzo[d]thiazol-2-yl)acetamide] | < 1 | < 1 | < 1 | – | – | – | – | –
CC(=O)Nc1cn2cc(-c3ccc(N)nc3)ccc2n1 [Example 3, N-[6-(6-Amino-pyridin-3-yl)-imidazo[1,2-a]pyridin-2-yl]-acetamide] | – | – | – | < 10 | < 1 | < 1 | – | –
CC(=O)Nc1cn2cc(-c3cnc(N)nc3)ccc2n1 [Example 4, N-[6-(2-Amino-pyrimidin-5-yl)-imidazo[1,2-a]pyridin-2-yl]-acetamide] | – | – | – | < 25 | < 10 | < 1 | – | –
CC(=O)Nc1nc2ccc(-c3cnc(N)c(C(F)(F)F)c3)cn2c1Cl [Example 7, N-[6-(6-Amino-5-trifluoromethyl-pyridin-3-yl)-3-chloro-imidazo[1,2-a]pyridin-2-yl]-acetamide] | – | – | – | < 10 | < 10 | < 1 | – | –
COc1cc(-c2ccc3nc(NC(C)=O)c(Br)n3c2)cnc1N [Example 8, N-[6-(6-Amino-5-methoxy-pyridin-3-yl)-3-bromo-imidazo[1,2-a]pyridin-2-yl]-acetamide] | – | – | – | < 10 | < 1 | < 1 | – | –
CC(=O)Nc1nc2ccc(-c3cnc(N)c(C(F)(F)F)c3)cn2c1Br [Example 11, N-[6-(6-Amino-5-trifluoromethyl-pyridin-3-yl)-3-bromo-imidazo[1,2-a]pyridin-2-yl]-acetamide] | – | – | – | – | – | < 1 | < 25 | < 10
CC(=O)Nc1nc2ccc(-c3cnc(N)c(C(F)(F)F)c3)cn2c1-c1ccccc1 [Example 12, N-[6-(6-Amino-5-trifluoromethyl-pyridin-3-yl)-3-phenyl-imidazo[1,2-a]pyridin-2-yl]-acetamide] | – | – | – | < 25 | < 10 | < 1 | – | –
CC(=O)Nc1nc2ccc(-c3cnc(N)c(C(F)(F)F)c3)cn2c1-c1ccc(C(N)=O)cc1 [Example 13, 4-[2-Acetylamino-6-(6-amino-5-trifluoromethyl-pyridin-3-yl)-imidazo[1,2-a]pyridin-3-yl]-benzamide] | – | – | – | < 25 | < 25 | < 1 | – | –
CNC(=O)c1ccc(-c2c(NC(C)=O)nc3ccc(-c4cnc(N)c(C(F)(F)F)c4)cn23)cc1 [Example 18, 4-[2-Acetylamino-6-(6-amino-5-trifluoromethyl-pyridin-3-yl)-imidazo[1,2-a]pyridin-3-yl]-N-methyl-benzamide] | – | – | – | < 25 | < 10 | < 1 | – | –
COC(=O)Nc1cn2cc(-c3cnc(N)c(C(F)(F)F)c3)ccc2n1 [Example 19, [6-(6-Amino-5-trifluoromethyl-pyridin-3-yl)-imidazo[1,2-a]pyridin-2-yl]-carbamic acid methyl ester] | – | – | – | < 10 | < 1 | < 1 | – | –
CC(=O)Nc1nc2ccc(-c3cnc(N)c(C(F)(F)F)c3)cn2c1C#Cc1ccccc1 [Example 23, N-[6-(6-Amino-5-trifluoromethyl-pyridin-3-yl)-3-phenylethynyl-imidazo[1,2-a]pyridin-2-yl]-acetamide] | – | – | – | < 10 | < 1 | < 1 | – | –
